{"source": "paper PMC3137686", "about": "(Synapse (New York, N.Y.), 2011)", "key": {"[1]": {"test_system": "brain 5-HT axonal markers", "settings": "intrastriatal administration; ref Jones et al. 2005; cited from earlier work"}, "[2]": {"assay": "Rectal", "assay_type": "in vivo, rat"}, "[3]": {"test_system": "cytochrome P450 (CYP450)", "settings": "ref Broly et al. 1990; Ramamoorthy et al. 2002; Heydari et al. 2004; cited from earlier work"}, "[4]": {"test_system": "brain serotonin (5-HT) neurons", "assay": "Regional brain 5-HT and 5-HIAA concentrations one week after drug treatment", "assay_type": "in vivo, rat", "settings": "one week after single oral dose of 20 mg/kg MDMA"}, "[5]": {"test_system": "brain serotonin (5-HT) neurons", "settings": "ref Paris and Cunningham 1992, Esteban et al. 2001, Escobedo et al. 2005; cited from earlier work"}}, "note": "“Also recorded” adds a separate entry of the source.", "data": [{"smiles": "CNC(C)Cc1cc(O)c(O)c(SC[C@H](NC(C)=O)C(=O)O)c1", "note": "(stereo partly shown) [5-NAC-HHMA, 5-N-acetylcystein-S-yl-HHMA]", "values": [{"measurement": "lasting depletions of indoles in the rat brain", "setting": "[1]", "result": "produces lasting depletions of indoles"}]}, {"smiles": "COc1ccc2c(c1)[C@]13CCCC[C@@H]1[C@H](C2)N(C)CC3", "note": "[DXM, dextromethorphan]", "values": [{"measurement": "effect of DXM on body (core) temperature", "setting": "[2]; DXM 30 mg/kg i.p. x3, alone or in combination with MDMA 20 mg/kg p.o.", "result": "did not significantly alter; also recorded: no significant effect"}, {"measurement": "body temperature after combination of MDMA and DXM", "setting": "[2]; MDMA 20 mg/kg p.o. + DXM 30 mg/kg i.p. x3", "result": "longer lasting decrease in temperature, which was followed by an increase in core temperature"}, {"measurement": "peak temperatures, MDMA/DXM group vs MDMA/Saline group", "setting": "[2]; MDMA 20 mg/kg p.o. + DXM 30 mg/kg i.p. x3, difference did not achieve statistical significance", "result": "lower"}, {"measurement": "inhibition of CYP450-mediated metabolism of MDMA to HHMA", "setting": "[3]", "result": "potent competitive inhibitor"}]}, {"smiles": "CNC(C)Cc1ccc2c(c1)OCO2", "note": "(stereo not shown) [MDMA, 3,4-Methylenedioxymethamphetamine]", "values": [{"measurement": "5-HT and 5-HIAA concentrations across brain regions after MDMA", "setting": "[4]", "result": "lasting effects"}, {"measurement": "toxic effects after central administration", "setting": "[5]", "result": "does not produce toxic effects"}]}]}
